For test [1], the system named is rabbit skeletal muscle myosin 2 HMM. Briefly: gliding actin in vitro motility assay. The format is biochemical. From the text: Here, skeletal muscle myosin 2 HMM is bound to a nitrocellulose-coated coverslip and its ability to translocate Rhodamine–phalloidin-labeled actin filaments observed (Table 1). […] The lack of reversibility could be due to covalent modification of myosin by SMIFH2. […] A higher drug concentration was required to achieve ∼50% of the gliding velocity than was required for similar inhibition of the actin-activated ATPase. This was also observed when blebbistatin was used to inhibit actin gliding ([Limouze et al., 2004]; [Sakamoto et al., 2005]).
The gliding actin in vitro motility assay was conducted at 30°C in 50 mM KCl, 4 mM MgCl2, 0.1 mM EGTA, 30 mM MOPS pH 7.2, 0.5% methylcellulose, 1 mM ATP, using an oxygen-savaging system consisting of 2.5 μg/ml glucose oxidase, 45 μg/ml catalase, 2.5 mg/ml glucose and […] DTT ([Sellers et al., 1993]). The rate of movement of actin filaments was determined as described previously ([Homsher et al., 1992]).

The subject of test [2] is permeabilized REF52 cells. Briefly: ATP-dependent ventral stress fiber retraction in Triton X-100-permeabilized cells. It counts as cell-based, rat.
Text: Detergent treatment leads to depletion of all soluble factors from the cells and, in particular, of ATP. Supplementing the medium with ATP induces the myosin 2-dependent contraction of stress fibers. […] We locally photoconverted spots along the length of ventral stress fibers, and tracked both retraction of the unconverted stress fiber ends and longitudinal movements of the photoconverted actin spots after adding ATP into the solution (Fig. 1C, left panel).
For stress fiber imaging, REF52 cells were transfected with mEos3.2-Actin expression plasmid and seeded onto a 35 mm glass bottom dish (Iwaki, 3930-035) 24 h prior to the assay.
The protocol of the cell permeabilization and cytoskeleton contractility assay has been described previously ([Tee and Bershadsky, 2016]; [Tee et al., 2015]). […] All drug remained in the buffer during the entire period of observation.
Test [3] concerns the target rabbit skeletal muscle myosin 2. As to the kind of experiment: actin-activated ATPase assay (NADH-linked). The format is biochemical. The following applies: tissue purified, mixed isoforms; approximate. How it is done:
(§1) Two methods are primarily used to assess actomyosin function in vitro. […] In the absence of actin, myosins have very low basal ATPase rates that are activated 10–1000-fold by the addition of actin ([De La Cruz and Ostap, 2009]).
(§2) A heavy meromyosin (HMM)-like fragment of human non-muscle myosin 2A was prepared by expression in Sf9 insect cells as described ([Kengyel et al., 2010]). Cells were co-infected with a virus driving the expression of the truncated myosin heavy chain as well as one driving the expression of regulatory and essential light chains. The myosin was phosphorylated through smooth muscle myosin light chain kinase (MLCK) prior to use ([Nagy et al., 2013]). Full-length Drosophila myosin 5 ([Lu et al., 2020]), Drosophila myosin 7a ([Yang et al., 2009]) and a forced dimeric HMM-like fragment of bovine myosin 10 ([Takagi et al., 2014]) were also produced in Sf9 cells. Drosophila myosin 5 was co-expressed with Drosophila ELC and calmodulin, whereas the HMM-like fragment of myosin 10 was co-expressed with calmodulin. Skeletal muscle HMM was produced by chymotrypic digestion of full-length rabbit fast skeletal muscle myosin ([Margossian and Lowey, 1982]). […]
(§3) Actin-activated ATPase assays were carried out using an NADH-linked assay in a Cary 50 spectrophotometer as previously described ([Heissler et al., 2015]). […] Absorbance was monitored at 340 nm. […]

The target of test [4] is T1, human non-muscle myosin 2A (Homo sapiens, UniProt P35579).
T1 construct: A heavy meromyosin (HMM)-like fragment of human non-muscle myosin 2A; made in house; host or cells: Sf9 insect cells (baculovirus co-infection)
T1 sequence (P35579 1-1337 limits assumed): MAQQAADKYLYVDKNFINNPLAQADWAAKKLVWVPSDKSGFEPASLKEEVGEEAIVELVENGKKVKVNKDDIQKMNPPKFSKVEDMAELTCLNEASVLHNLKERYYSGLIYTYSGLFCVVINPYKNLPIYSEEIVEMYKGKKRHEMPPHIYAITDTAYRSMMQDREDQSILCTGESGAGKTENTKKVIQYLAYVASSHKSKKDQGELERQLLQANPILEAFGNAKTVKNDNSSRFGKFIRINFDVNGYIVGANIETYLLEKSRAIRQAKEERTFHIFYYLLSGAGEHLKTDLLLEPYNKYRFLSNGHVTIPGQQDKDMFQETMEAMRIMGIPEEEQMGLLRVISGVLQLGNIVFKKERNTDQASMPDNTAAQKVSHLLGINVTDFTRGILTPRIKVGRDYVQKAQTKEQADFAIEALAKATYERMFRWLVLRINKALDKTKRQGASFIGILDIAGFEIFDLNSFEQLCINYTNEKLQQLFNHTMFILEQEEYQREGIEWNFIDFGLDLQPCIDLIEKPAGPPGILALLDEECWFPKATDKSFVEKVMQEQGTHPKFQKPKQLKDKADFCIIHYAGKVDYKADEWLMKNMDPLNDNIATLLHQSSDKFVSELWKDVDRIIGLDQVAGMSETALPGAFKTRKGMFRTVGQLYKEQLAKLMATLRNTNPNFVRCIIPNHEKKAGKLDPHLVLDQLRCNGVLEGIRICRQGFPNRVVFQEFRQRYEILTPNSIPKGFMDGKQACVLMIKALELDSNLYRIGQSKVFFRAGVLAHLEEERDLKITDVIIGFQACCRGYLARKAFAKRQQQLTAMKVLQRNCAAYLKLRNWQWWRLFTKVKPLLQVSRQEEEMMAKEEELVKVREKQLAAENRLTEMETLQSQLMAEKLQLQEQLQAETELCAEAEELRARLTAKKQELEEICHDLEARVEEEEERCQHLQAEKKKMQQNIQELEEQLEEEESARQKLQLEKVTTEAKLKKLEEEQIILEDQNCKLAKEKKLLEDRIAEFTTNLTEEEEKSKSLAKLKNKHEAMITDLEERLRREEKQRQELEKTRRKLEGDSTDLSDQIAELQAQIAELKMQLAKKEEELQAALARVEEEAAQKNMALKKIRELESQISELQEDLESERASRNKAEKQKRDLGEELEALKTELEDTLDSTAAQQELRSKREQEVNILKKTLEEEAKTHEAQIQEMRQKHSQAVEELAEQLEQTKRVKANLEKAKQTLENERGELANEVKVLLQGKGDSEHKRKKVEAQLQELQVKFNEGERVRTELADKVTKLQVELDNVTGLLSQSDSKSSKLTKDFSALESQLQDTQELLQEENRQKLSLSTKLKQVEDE
T1 sequence (O14950 2-172 partner limits assumed): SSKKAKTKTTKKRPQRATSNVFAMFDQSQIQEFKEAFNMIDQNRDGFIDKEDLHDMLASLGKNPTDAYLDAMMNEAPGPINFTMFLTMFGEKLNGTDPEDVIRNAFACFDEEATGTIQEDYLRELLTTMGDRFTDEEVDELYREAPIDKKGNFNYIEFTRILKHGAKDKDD
T1 sequence (P60660 2-151 partner limits assumed): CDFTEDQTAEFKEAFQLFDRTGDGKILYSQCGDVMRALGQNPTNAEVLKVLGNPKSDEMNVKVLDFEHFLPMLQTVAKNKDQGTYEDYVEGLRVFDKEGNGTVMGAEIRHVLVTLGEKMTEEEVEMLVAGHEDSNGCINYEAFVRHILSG
Briefly: actin-activated ATPase assay (NADH-linked). The format is biochemical. The following applies: phosphorylated by MLCK; 10 µM actin, 25°C; approximate; read-out: IC50, actin-activated MgATPase activity. The protocol:
as §1, §2, §3

The test system of a further test is REF52 fibroblast. As to the kind of experiment: traction force microscopy in living cells. It counts as cell-based, rat. The settings on record: 30 μM, within 10 min. The protocol:
Traction force microscopy with embedded beads was performed as described previously ([Rafiq et al., 2019]). Briefly, soft polydimethylsiloxanes CY 52-276A and CY 52-276B (Dow Corning, 0008602722) were mixed at the ratio 1:1 and Sylgard 184 crosslinker was used to tune the stiffness of the gel for proper force measurement of cells (∼95 kPa). The mixture was spin-coated onto a clean coverslip to achieve the thickness of ∼7 μm and cured for 1 h at 80°C. The surface of the gel was silanized with (3-aminopropyl)triethoxysilane for 2 h, followed by incubation of 0.04 μm FluoSpheres carboxylate-modified microspheres, dark red fluorescent (660/680) beads (Thermo Fisher Scientific, 1871942) at 1×10^6 beads/ml in a solution of 0.1 M NaHCO3 for 30 min. Before seeding the cells, the coverslips with beads were further incubated for 30 min with 10 μg/ml fibronectin, also dissolved in 0.1 M NaHCO3. Traction forces were calculated from bead displacement fields visualized by using live cell imaging as described by [Tseng et al. (2012)], and using the online ImageJ plugin (https://sites.google.com/site/qingzongtseng/tfm for plugin software details). The computation algorithm as published by [Sabass et al. (2008)] was used. The distribution of traction force magnitude was presented as a heat map (Fig. 1A), and mean magnitude values were calculated for each cell.

In the next test the test system is mDia1. Set-up: method as in Rizvi et al., 2009. The following applies: actin assembly in the presence of profilin in vitro; ref Rizvi et al., 2009; read-out: Half-maximal inhibition of mDia1; cited from earlier work.
A further test deals with HFF cells. Briefly: centripetal movement of myosin 2 filaments at transverse arcs in living cells (PIV). The format is cell-based, human. The following applies: treated 45 min, 12.5, 25 or 50 μM. From the text: (§4) We also tested inhibition of contraction of another type of contractile actomyosin structure, i.e. of the transverse arcs formed by periodically arranged myosin and actin filaments in fibroblasts ([Hu et al., 2017]). We measured the velocity of movement of transverse arcs in human foreskin fibroblast (HFF) cells plated on a circular fibronectin island ([Tee et al., 2015]). In control cells, filaments of non-muscle myosin 2 were visualized by expression of GFP-tagged myosin regulatory light chain (GFP-MRLC) localized to the transverse arcs and moved towards the cell center with an average velocity of 0.152 μm/min, as determined by particle image velocimetry (PIV) (Fig. 2A) ([Hu et al., 2017)]. […] Permeabilization of the same cells by using Triton X-100 removed G-actin and ATP. […]
(§5) Particle Image Velocimetry (PIV) analysis was used to measure average instantaneous speed of filaments of non-muscle myosin 2 visualized by expression of GFP-MRLC. […] To quantify the retraction speed of stress fiber ends, we manually selected all ends labeled by unconverted mEOS3.2-actin and arranged them into kymographs for every cell. The retraction speed for each end during imaging was calculated manually using the kymograph. The average retraction speed of stress fibers was calculated for each cell and plotted.

Test [5] relates to Formins: CYK-1, Cdc12 and Fus1, Bn1, mDia2. Also noted: method as in Rizvi et al., 2009. The settings on record: CYK-1, Cdc12, Fus1, Bn1, mDia2; ref Rizvi et al., 2009; read-out: IC50 values for formins from a variety of species; cited from earlier work.
The subject of another test is permeabilized HFF cells. As to the kind of experiment: ATP-induced centripetal movement of myosin 2 filaments in permeabilized cells (PIV). The following applies: 50 μM. It counts as cell-based, human.
Text: as §4, §5

A further test concerns the target T2, Drosophila myosin 7a (Drosophila melanogaster, UniProt Q9V3Z6).
T2 construct: made in house; host or cells: Sf9 cells
As to the kind of experiment: actin-activated ATPase assay (NADH-linked). The settings on record: approximate. It counts as biochemical. From the text:
(§6) There are 40 myosin heavy chain genes from twelve classes in the human genome ([Berg et al., 2001]). Many, but not all of these myosins are present in other metazoan species including Drosophila ([Yamashita et al., 2000]). Although all of these myosins contain a conserved motor domain, the tail portions are very diverse, allowing the myosins to perform a plethora of cellular functions. […] The assays regarding bovine myosin 10 are particularly interesting since this myosin plays a role in filopodia initiation and formation in mammalian cells ([Kerber and Cheney, 2011]), a process that also involves formin action.
(§7) A heavy meromyosin (HMM)-like fragment of human non-muscle myosin 2A was prepared by expression in Sf9 insect cells as described ([Kengyel et al., 2010]). Cells were co-infected with a virus driving the expression of the truncated myosin heavy chain as well as one driving the expression of regulatory and essential light chains. The myosin was phosphorylated through smooth muscle myosin light chain kinase (MLCK) prior to use ([Nagy et al., 2013]). Full-length Drosophila myosin 5 ([Lu et al., 2020]), Drosophila myosin 7a ([Yang et al., 2009]) and a forced dimeric HMM-like fragment of bovine myosin 10 ([Takagi et al., 2014]) were also produced in Sf9 cells. Drosophila myosin 5 was co-expressed with Drosophila ELC and calmodulin, whereas the HMM-like fragment of myosin 10 was co-expressed with calmodulin. Skeletal muscle HMM was produced by chymotrypic digestion of full-length rabbit fast skeletal muscle myosin ([Margossian and Lowey, 1982]). Rabbit skeletal muscle actin was prepared as previously described ([Lehrer and Kerwar, 1972]).
(§8) Actin-activated ATPase assays were carried out using an NADH-linked assay in a Cary 50 spectrophotometer as previously described ([Heissler et al., 2015]). […] The final amount of DMSO added to the samples was 2%. The assay conditions were 10 µM actin, 50 mM KCl, 10 mM MOPS, 2 mM MgCl2, 0.1 mM EGTA, 1 mM ATP, 10 mM MOPS pH 7.0 at 25°C. […] Absorbance was monitored at 340 nm.

In another test the target is T3, bovine myosin 10 (Bos taurus, UniProt P79114).
T3 construct: a forced dimeric HMM-like fragment of bovine myosin 10; dimerisation element (forced dimer); made in house; host or cells: Sf9 cells
T3 sequence (P79114 other isoform, or with tags, fused parts or gaps): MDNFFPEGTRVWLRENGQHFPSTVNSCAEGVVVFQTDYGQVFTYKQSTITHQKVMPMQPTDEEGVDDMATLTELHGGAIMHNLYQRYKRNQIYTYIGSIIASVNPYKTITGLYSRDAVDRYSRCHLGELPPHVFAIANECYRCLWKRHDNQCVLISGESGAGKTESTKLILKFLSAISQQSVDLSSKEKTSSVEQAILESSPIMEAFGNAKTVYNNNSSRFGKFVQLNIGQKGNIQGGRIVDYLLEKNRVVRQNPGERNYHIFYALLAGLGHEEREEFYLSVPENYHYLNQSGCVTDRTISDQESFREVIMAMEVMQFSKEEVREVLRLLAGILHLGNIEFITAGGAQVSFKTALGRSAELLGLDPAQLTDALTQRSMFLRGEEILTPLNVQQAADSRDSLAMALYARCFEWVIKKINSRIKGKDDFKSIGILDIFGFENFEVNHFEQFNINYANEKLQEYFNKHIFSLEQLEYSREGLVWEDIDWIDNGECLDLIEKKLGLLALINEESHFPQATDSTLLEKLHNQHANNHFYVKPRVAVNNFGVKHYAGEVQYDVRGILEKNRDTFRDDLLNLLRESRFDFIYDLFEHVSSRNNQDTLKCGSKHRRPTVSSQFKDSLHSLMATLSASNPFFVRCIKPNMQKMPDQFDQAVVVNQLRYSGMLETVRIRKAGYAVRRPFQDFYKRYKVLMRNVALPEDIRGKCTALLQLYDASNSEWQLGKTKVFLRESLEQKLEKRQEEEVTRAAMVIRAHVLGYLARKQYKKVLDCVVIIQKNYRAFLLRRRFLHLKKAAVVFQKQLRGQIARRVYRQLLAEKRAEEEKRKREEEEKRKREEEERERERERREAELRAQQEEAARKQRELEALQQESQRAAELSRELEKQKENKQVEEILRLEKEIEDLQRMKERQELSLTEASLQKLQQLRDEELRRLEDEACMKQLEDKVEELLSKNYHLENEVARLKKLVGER
As to the kind of experiment: actin-activated ATPase assay (NADH-linked). The format is biochemical. The following applies: approximate.
Text: as §6, §7, §8

In another test the target is Drosophila myosin 5 (Drosophila melanogaster, UniProt A1Z6Z9). Briefly: actin-activated ATPase assay (NADH-linked). The settings on record: approximate. It counts as biochemical.
Text: as §6, §7, §8

In a further test the target is MLCK (Homo sapiens, UniProt Q15746). As to the kind of experiment: myosin light chain kinase phosphorylation of non-muscle myosin 2A (HPLC-mass spectrometry). It counts as biochemical. The following applies: 100 μM.
Chain of MLCK (Q15746 923-1914): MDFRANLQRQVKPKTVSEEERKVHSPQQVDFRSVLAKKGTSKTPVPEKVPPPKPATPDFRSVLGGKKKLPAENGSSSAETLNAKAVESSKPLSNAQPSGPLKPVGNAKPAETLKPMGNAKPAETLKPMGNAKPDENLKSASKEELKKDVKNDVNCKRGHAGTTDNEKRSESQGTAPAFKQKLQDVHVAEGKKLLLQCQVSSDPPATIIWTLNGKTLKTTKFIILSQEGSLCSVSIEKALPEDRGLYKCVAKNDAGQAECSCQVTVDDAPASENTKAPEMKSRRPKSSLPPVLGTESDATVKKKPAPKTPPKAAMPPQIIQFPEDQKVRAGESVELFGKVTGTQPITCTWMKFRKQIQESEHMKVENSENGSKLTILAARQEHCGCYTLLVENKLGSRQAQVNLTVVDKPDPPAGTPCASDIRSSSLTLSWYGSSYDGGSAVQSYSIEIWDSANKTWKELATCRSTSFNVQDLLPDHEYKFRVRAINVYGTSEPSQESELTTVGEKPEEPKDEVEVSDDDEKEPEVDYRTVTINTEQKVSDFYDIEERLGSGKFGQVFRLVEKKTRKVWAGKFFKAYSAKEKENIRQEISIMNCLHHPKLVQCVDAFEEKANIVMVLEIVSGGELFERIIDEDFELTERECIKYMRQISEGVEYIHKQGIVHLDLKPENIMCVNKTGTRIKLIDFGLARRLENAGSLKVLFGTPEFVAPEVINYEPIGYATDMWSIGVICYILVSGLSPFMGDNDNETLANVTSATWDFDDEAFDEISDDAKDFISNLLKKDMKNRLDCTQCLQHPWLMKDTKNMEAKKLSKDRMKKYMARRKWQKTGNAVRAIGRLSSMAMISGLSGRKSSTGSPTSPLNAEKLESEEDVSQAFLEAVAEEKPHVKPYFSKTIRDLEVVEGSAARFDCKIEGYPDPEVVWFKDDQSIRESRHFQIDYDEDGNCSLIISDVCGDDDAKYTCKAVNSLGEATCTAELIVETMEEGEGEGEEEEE
The subject of a further test is pure actin. Also noted: method as in Rizvi et al., 2009. The following applies: ref Rizvi et al., 2009; cited from earlier work.

Values joined by “and” are separate entries in the source; they are usually repeats but may differ in a detail not shown here. Equal values may be shown once. “Also recorded” adds a separate entry of the source. Marks after values point to notes of the source that are not given here.

Regarding `O=C1NC(=S)N(c2cccc(Br)c2)C(=O)C1=Cc1ccco1` [SMIFH2], the “Velocity of actin filaments” value in test [1] (50 μM SMIFH2) was 4.1* μm/s; in test [1] (100 μM SMIFH2), 4.1* μm/s; in [1] (150 μM SMIFH2), “completely abolished; also recorded: No movement”; in [1] (150 μM SMIFH2 followed by washout) it was “could not be reversed; also recorded: No movement”; in test [1] (200 μM SMIFH2), “No movement”. Besides, the “inhibition of ATP-induced retraction of stress fiber ends (contractility)” value in test [2] (>100 μM SMIFH2) is “complete inhibition”. Further, the “inhibition of ATP-induced retraction of stress fiber ends” value in test [2] (∼50μM SMIFH2) is listed as ~50%. Moreover, the IC50 in test [3] is ~40 µM; in test [4], 50 µM and ~50 µM; in the test with mDia1, ~15 µM; in test [5], 5 to 15 µM; at Drosophila myosin 7a, 30 µM and ~30 µM; against bovine myosin 10 it was 15 µM and ~15 µM. Moreover, the IC50 at Drosophila myosin 5 is 2 µM and ~2 µM. In the test on REF52 fibroblast, the “effect on traction forces exerted by cells” value is reported as “inhibition of traction forces”. Also, in the test with HFF cells, the “velocity of centripetal movement of transverse arcs (myosin 2 filaments)” value is “decreased in dose-dependent manner”. The “ATP-induced centripetal movement of myosin 2 filaments” value in the test with permeabilized HFF cells is “blocked centripetal movement”. The “inhibition of MLCK activity” value against MLCK is on record as “no effect; also recorded: did not inhibit”. Also, the “effect on assembly of pure actin” value with pure actin is “did not affect”.

Consider `Cc1ccc2c(c1)C(=O)[C@]1(O)CCN(c3ccc(N)cc3)C1=N2` [pAB, para-aminoblebbistatin], for which the “inhibition of ATP-induced retraction of stress fiber ends (contractility)” value in [2] (100 μM pAB) was “complete inhibition”.

Values taken from publication PMC8121067 (Journal of Cell Science, 2021).
